Reference: patent US11603552B2 (priority 2020, dated 2023)
“Also recorded” adds a separate entry of the source.

Assays:
SARS PLpro = format: biochemical
[1] = system: human cells infected with OC43 coronavirus; format: cell-based
[2] = system: endogenous enzymes present in crude tongue scrape lysate; format: biochemical, human
[3] = target: MERS papain-like protease (recombinant) (Middle East respiratory syndrome-related coronavirus, UniProt K9N7C7)
[4] = target: SARS-1 papain-like protease (recombinant) (Severe acute respiratory syndrome coronavirus, UniProt P0C6X7)
[5] = target: SARS-2 papain-like protease (recombinant) (Severe acute respiratory syndrome coronavirus 2, UniProt P0DTD1)
PLpro from SARS-CoV-1 = PLpro from SARS-CoV-1 (Severe acute respiratory syndrome coronavirus, UniProt P0C6X7)
PLpro from SARS-CoV-2 = PLpro from SARS-CoV-2 (Severe acute respiratory syndrome coronavirus 2, UniProt P0DTD1)
MERS PLpro = MERS PLpro (Middle East respiratory syndrome-related coronavirus, UniProt K9N7C7)
MERS PLpro, sequence (K9N7C7 1552-1823 limits assumed): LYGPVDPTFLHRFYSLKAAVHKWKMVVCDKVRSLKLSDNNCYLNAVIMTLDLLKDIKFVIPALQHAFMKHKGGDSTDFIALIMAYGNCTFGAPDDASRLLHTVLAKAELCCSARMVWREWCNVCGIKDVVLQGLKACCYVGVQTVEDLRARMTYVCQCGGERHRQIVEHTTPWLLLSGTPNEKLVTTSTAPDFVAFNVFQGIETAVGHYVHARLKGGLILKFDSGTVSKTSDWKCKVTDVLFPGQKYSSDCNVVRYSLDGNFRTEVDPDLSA

SARS-1 = details: cited from earlier work
SARS-2 = details: cited from earlier work
MERS = details: cited from earlier work
NL63 PLP2 (recombinant) = NL63 PLP2 (recombinant) (Human coronavirus NL63, UniProt P0C6X5); format: biochemical; set-up: cleavage of papain-like protease substrate: key to the marks not given beside the values
NL63 PLP2 (recombinant), sequence (P0C6X5 1640-1886 limits assumed): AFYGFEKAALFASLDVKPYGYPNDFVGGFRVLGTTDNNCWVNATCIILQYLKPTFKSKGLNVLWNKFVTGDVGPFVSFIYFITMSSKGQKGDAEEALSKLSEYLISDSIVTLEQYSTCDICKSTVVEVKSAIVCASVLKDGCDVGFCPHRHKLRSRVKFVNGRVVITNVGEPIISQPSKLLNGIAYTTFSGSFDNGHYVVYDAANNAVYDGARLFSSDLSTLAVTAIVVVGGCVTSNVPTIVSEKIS

[6] = system: human cells infected with NL63 coronavirus; format: cell-based; details: NL63, viral enzyme, in vivo (infected human cell lysate), after 15 minutes of incubation
human UCH-L3 = human UCH-L3 (Homo sapiens, UniProt P15374); format: biochemical
human UCH-L3, sequence (P15374 whole entry, looked up): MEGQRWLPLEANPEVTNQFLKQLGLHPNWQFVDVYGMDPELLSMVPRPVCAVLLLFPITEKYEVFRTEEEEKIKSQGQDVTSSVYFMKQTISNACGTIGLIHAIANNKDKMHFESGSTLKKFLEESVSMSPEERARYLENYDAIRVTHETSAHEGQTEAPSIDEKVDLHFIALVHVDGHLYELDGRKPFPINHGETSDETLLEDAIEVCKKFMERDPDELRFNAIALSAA

MERS papain-like protease (recombinant), sequence (K9N7C7 1552-1823 limits assumed): as the sequence (K9N7C7 1552-1823 limits assumed) above

Ac-Abu(Bth)-Dap-G-G (SEQ ID NO. 9)
specific cleavage by SARS PLpro (not by MERS PLpro or human deubiquitylating enzymes) (SARS PLpro): specifically cleaved

Ac-Tyr-Dap-G-G (SEQ ID NO. 11)
specific cleavage by SARS PLpro (not by MERS PLpro or human deubiquitylating enzymes) (SARS PLpro): specifically cleaved

Ac-hPhe-Dap-G-G (SEQ ID NO. 12)
specific cleavage by SARS PLpro (not by MERS PLpro or human deubiquitylating enzymes) (SARS PLpro): specifically cleaved

Ac-hTyr-Phe(guan)-G-G (SEQ ID NO. 10)
specific cleavage by SARS PLpro (not by MERS PLpro or human deubiquitylating enzymes) (SARS PLpro): specifically cleaved

L-R-G-G (SEQ ID NO. 1)
cleavage, percent fluorescence increase relative to uninfected cells [1]: 22%^2
cleavage by endogenous enzymes present in lysate [2]: is cleaved; also recorded: slight fluorescence increases
cleavage of papain-like protease substrate [3]: +
cleavage of papain-like protease substrate [4]: +
cleavage of papain-like protease substrate [5]: +
cleavage of substrate (qualitative) (PLpro from SARS-CoV-1): cleave
cleavage of substrate (qualitative) (PLpro from SARS-CoV-2): cleave
cleavage of substrate (qualitative) (MERS PLpro): cleave
Catalytic rate (Kcat) (SARS-1): 0.0051 min⁻¹
Catalytic rate (Kcat) (SARS-2): 0.3 min⁻¹
Catalytic rate (Kcat) (MERS): 0.003 min⁻¹

Tyr-Dap-G-G (SEQ ID NO. 4)
cleavage, percent fluorescence increase relative to uninfected cells [1]: 34%^3
cleavage by endogenous enzymes present in lysate [2]: is not cleaved
cleavage of papain-like protease substrate [4]: ++
cleavage of papain-like protease substrate [5]: +

Ubiquitin
cleavage of papain-like protease substrate (NL63 PLP2 (recombinant)): +++
times more efficiently cleaved than ISG15 (NL63 PLP2 (recombinant)): 2.5 times
times more efficiently cleaved than the tetrapeptide (NL63 PLP2 (recombinant)): 120 times
cleavage, percent fluorescence increase relative to uninfected cells [6]: 24%^1
cleavage of papain-like protease substrate [3]: ++
cleavage of papain-like protease substrate [4]: ++
cleavage of papain-like protease substrate [5]: ++
cleavage of substrate (qualitative) (PLpro from SARS-CoV-1): cleave
cleavage of substrate (qualitative) (PLpro from SARS-CoV-2): cleave
cleavage of substrate (qualitative) (MERS PLpro): cleave
Catalytic rate (Kcat) (SARS-1): 10 min⁻¹
Catalytic rate (Kcat) (SARS-2): 75.9 min⁻¹
Catalytic rate (Kcat) (MERS): 18.8 min⁻¹

hTyr-Dap-G-G (SEQ ID NO. 13)
recognition of the substrate (human UCH-L3): do not recognize
